Assay results: ChEMBL document CHEMBL1143142, “5-Substituted 1H-pyrrolo[3,2-b]pyridines as inhibitors of gastric acid secretion” (Bioorg Med Chem, 2008)

Columns and labels:
[1] = Inhibition of hog gastric mucosa H/+K+ ATPase; format: tissue-based
Gastric gland = assay: Inhibition of gastric acid secretion in rabbit gastric gland assessed as accumulation of 14C]-[…]; format: functional, tissue-based; details: Oryctolagus cuniculus
[2] = Dissociation constant, pKa of the compound; format: physicochemical
[3] = Distribution coefficient, log D at pH 7.4; details: octanol/water

Row | Structure (SMILES) | Log IC50 [1] | IC50 (Gastric gland) [µM] | pKa [2] | logD [3]
1 | CCc1cccc(C)c1CNc1cc(C(=O)N(C)C)nc2cc(C)[nH]c12 | -5.9 | 3.16 | 7.39 | 4.1
2 | Cc1cccc(C)c1CNc1cc(C(=O)N(C)C)nc2c(C)c(C)n(Cc3ccccc3)c12 | -5.1 | 1 | 6.86 | 5.2
3 | Cc1cc2nc(C(=O)N(C)C)cc(NCc3c(C)cccc3C)c2[nH]1 | -6.1 | 2.51 | 7.3 | 3.62
4 | CNC(=O)c1cc(NCc2c(C)cccc2C)c2[nH]c(C)cc2n1 | -5.5 | 1.58 | 7.33 | 2.96
5 | Cc1cccc(C)c1CNc1cc(C(=O)N(C)C)nc2c(CO)c(C)n(Cc3ccccc3)c12 | -4.6 | 10 | 6.52 | 3.87
6 | CNC(=O)c1cc(NCc2c(C)cccc2C)c2[nH]c(C)c(Br)c2n1 | < -4 | 5.01 | 7.39 | –
7 | Cc1cccc(C)c1CNc1cc(C(=O)N(C)C)nc2c(C)c(C)n(C)c12 | -4.6 | 15.8 | 7.13 | 3.53
8 | Cc1cccc(C)c1CNc1cc(C(=O)N(C)C)nc2c(Br)c(C)[nH]c12 | -5 | 3.16 | 6.02 | > 4.8
9 | Cc1cccc(C)c1CNc1cc(C(=O)N(C)C)nc2c(C)c(C)n(CC(C)O)c12 (centres undefined) | -4.8 | 3.98 | 7.19 | 3.4
10 | Cc1cccc(C)c1CNc1cc(C(=O)N(C)C)nc2c(CO)c(C)[nH]c12 | -5.6 | 63.1 | 7.2 | 2.95

Other lines, results leading:

Row | Log IC50 [1] | IC50 (Gastric gland) [µM] | pKa [2] | logD [3] | Structure (SMILES)
11 | -6.9 | 0.251 | 7.56 | – | Cc1cccc(C)c1CNc1cc(C(=O)N(C)C)nc2c(C)c(C)[nH]c12
12 | -5.7 | 50.1 | 7.07 | 3.27 | CCc1cccc(C)c1CNc1cc(C(=O)N(C)C)nc2c(CO)c(C)[nH]c12
13 | -6.6 | 0.251 | 7.57 | 4.6 | CCc1cccc(C)c1CNc1cc(C(=O)N(C)C)nc2c(C)c(C)[nH]c12
14 | -5 | 10 | 5.84 | > 4.8 | CCc1cccc(C)c1CNc1cc(C(=O)N(C)C)nc2c(Br)c(C)[nH]c12
